{"source": "patent US10335365B2", "about": "“Bladder cancer specific ligand peptides” (The Regents of the University of California, priority 2009, dated 2019)", "test_system": "5637 bladder cancer cells", "test": "Alanine walk and X5 glycine addition, bead binding to 5637 cells", "set-up": "species or system human", "settings": "compared with parental PLZ4", "experimental": "FIG. 6A-C. Binding of PLZ4 to ανβ3 integrin A. PLZ4 binds to ανβ3 integrin. Beads coated with PLZ4 peptides were incubated with K562 cells transfected with different integrin subunits. PLZ4 can only bind to K562 cells when ανβ3 integrin is expressed on the surface. B. Alanine walk to determine the amino acids important for cell binding. Each amino acid in PLZ4 (SEQ ID NO: 5) was replaced with alanine one at a time to generate beads covered with new peptides (SEQ ID NOS 24-30, respectively, in order of appearance) (alanine walk), and tested for their binding to 5637 bladder cancer cells. Semi-quantitative system was used to determine binding activity: ++++ means very strong binding with 75-100% bead surface covered by cells; +++ means strong binding with 50-74% bead surface covered by cells; […] binding with 25-49% bead surface covered by cells; + means weak binding with 1-24% bead surface covered by cells; − means no binding. C. The effects of glycine residues at the X5 position on the binding of PLZ4 to bladder cancer cells. The peptides on beads in each panel have the same backbone sequence (cQDGRKGFc; SEQ ID NO:11) as PLZ4 (cQDGRMGFc; SEQ ID NO:12) except the M at the X5 position has been replaced with K. One (c) to six (h) numbers of glycine were conjugated to K from Panel c to h (SEQ ID NO:13). The OBOC beads were incubated with 5637 TCC cells. […]", "note": "Positions of bridges follow the written chain, without caps; N, C: chain ends. Non-standard residues stand in square brackets, D forms with d. No end group written: not given here."}
{"substance": "cQDGRKGFc ([dC]QDGRKGF[dC]; disulfide 1-9) [PLZ4 backbone with the M at the X5 position replaced with K]", "values": [{"measurement": "binding of modified peptides on beads to 5637 cells", "result": "no significant changes in binding"}]}
